From patent publication US8163756B2 (priority 2004, dated 2012)
Where a name gives a salt, the structure may show the parent alone.

Tests used:
Format in all cases: biochemical
[1] = biological target: T1, phosphorylated p-38-alpha kinase (Homo sapiens, UniProt Q16539); assay: P-38 alpha kinase assay P1 (coupled spectrophotometric, 2 h pre-incubation)
[2] = biological target: T2, B-Raf(V599E) kinase (Homo sapiens, UniProt P15056, V600E); assay: B-Raf(V599E) kinase assay B2 (construct 2 at 2 nM, 1 h pre-incubation)
Experimental: (§1) The test compounds were incubated with the reaction mixtureat 30° C. for 2 h. […] The reaction rate was calculated using the […] time frame. […] IC50 values were calculated from a series of percent inhibition values determined at a range of inhibitor concentrations using software routines as implemented in the GraphPad Prism software package.
Same as assay B1 except that (1) construct 2 was employed at a nominal concentration of 2 nM (2) the reaction was pre-incubated at 30° C. for 1 h prior to initiation with ATP (3) a reading time frame of 0.5 h to 1.5 h.
Target sequence in this assay (P15056 433-726 V600E): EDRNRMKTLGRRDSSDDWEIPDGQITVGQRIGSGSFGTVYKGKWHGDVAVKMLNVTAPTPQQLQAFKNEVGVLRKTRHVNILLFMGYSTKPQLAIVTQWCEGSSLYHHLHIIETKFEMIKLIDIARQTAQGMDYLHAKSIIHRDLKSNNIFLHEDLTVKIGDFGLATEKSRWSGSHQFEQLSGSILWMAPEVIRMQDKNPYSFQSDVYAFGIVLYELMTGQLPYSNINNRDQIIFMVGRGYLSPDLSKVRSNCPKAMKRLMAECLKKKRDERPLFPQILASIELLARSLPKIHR

[3] = biological target: T3, Abl kinase (Homo sapiens, UniProt P00519); assay: Abl kinase assay A2 (as A1, 1.1 nM enzyme, 2 h pre-incubation, 0.5 mM ATP)
T3 sequence (P00519 229-512): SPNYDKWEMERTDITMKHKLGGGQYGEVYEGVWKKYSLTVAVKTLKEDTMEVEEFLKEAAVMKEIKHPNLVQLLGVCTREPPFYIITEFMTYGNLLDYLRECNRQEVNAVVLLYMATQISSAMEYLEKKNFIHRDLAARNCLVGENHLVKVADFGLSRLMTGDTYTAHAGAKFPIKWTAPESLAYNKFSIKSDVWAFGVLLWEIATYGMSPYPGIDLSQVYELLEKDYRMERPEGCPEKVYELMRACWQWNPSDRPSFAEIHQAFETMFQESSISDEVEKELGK
Experimental: (§2) IC50 values were calculated from a series of percent inhibition values determined at a range of inhibitor concentrations using software routines as implemented in the GraphPad Prism software package.

[4] = biological target: T4, KDR kinase (Homo sapiens, UniProt P35968, DEL940-989/E990V); assay: KDR kinase assay K2 (as K1, 2.1 nM enzyme, 2 h pre-incubation, 1.0 mM ATP); conditions: Method K2
Experimental: as §2

[5] = biological target: T1, phosphorylated p-38-alpha kinase; assay: P-38 alpha kinase assay P2 (as P1, not pre-incubated); conditions: method P2 (not pre-incubated)
Experimental: Same as assay P1 except that (1) the reaction was not pre-incubated.

[6] = biological target: T3, Abl kinase; assay: Abl kinase assay A1 (pyruvate kinase/lactate dehydrogenase coupled, spectrophotometric); conditions: Method A1
Experimental: as §2

[7] = biological target: T2, B-Raf(V599E) kinase; assay: B-Raf(V599E) kinase assay B1 (construct 1, MEK1 substrate, coupled spectrophotometric)
Experimental: as §1
Target sequence in this assay (P15056 with tags, fused parts or gaps V600E): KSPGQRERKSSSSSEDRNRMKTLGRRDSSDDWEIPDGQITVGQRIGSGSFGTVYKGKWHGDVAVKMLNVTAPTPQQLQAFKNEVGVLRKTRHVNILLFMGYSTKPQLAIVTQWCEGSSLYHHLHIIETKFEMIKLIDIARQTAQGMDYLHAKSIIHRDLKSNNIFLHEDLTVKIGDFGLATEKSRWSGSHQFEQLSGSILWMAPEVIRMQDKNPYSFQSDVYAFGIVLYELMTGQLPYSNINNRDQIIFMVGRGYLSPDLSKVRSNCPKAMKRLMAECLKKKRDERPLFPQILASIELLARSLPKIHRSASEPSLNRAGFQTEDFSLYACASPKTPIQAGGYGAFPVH

[8] = biological target: T4, KDR kinase; assay: KDR kinase assay K1 (pyruvate kinase/lactate dehydrogenase coupled, spectrophotometric); conditions: Method K1; read-out: KDR Data (IC50)
Experimental: as §2

[9] = method P1 (2 h pre-incubation), read-out: P-38 Data
[10] = Method A2, read-out: Abl Data (IC50)

T1 sequence (Q16539 1-360 isoform Q16539-2): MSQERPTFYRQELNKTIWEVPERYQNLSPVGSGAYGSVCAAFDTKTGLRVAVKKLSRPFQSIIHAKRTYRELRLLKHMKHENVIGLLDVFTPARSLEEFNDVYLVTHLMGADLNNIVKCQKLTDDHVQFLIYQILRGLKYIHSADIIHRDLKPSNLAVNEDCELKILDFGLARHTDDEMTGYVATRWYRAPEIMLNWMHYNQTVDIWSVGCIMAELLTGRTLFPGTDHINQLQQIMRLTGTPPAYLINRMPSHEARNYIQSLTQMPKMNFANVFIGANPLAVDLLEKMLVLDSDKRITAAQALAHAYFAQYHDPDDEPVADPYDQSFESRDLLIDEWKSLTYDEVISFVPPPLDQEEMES
T4 sequence (P35968 with tags, fused parts or gaps DEL940-989/E990V): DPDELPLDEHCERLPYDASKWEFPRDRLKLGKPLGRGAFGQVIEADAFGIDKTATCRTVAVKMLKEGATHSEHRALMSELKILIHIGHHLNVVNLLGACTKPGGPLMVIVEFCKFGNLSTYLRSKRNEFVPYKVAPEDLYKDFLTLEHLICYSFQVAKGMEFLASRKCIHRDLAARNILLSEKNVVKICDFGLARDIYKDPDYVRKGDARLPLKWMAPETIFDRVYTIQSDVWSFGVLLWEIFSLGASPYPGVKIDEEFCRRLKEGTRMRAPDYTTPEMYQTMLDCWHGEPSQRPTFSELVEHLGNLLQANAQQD

Q: How did the IC50 [1] turn out when `CC(C)(C)c1cc(NC(=O)Nc2cccc(Oc3cccnc3)c2)n(-c2cc(CC(N)=O)c3ccccc3c2)n1` [Example 86, 1-(1-(4-(2-amino-2-oxoethyl)naphthalen-2-yl)-3-t-butyl-1H-pyrazol-5-yl)-3-(3-(pyridin-3-yloxy)phenyl)urea hydrochloride] was run?
A: The IC50 was 24 nM.

Q: And the IC50 [2]?
A: The IC50 was 179 nM.

Q: And the IC50 [3]?
A: The IC50 was 1 nM.

Q: Which results are given for `CC(C)(C)c1cc(NC(=O)Nc2cccc(Cl)c2Cl)n(-c2ccc3[nH]ncc3c2)n1` [Example 121, 1-(3-t-butyl-1-(1H-indazol-5-yl)-1H-pyrazol-5-yl)-3-(2,3-dichlorophenyl)urea]?
A: IC50 [1, 9]: 40 nM; IC50 [2]: 105 nM; IC50 [3, 10]: 1000 nM

Q: `CNC(=O)c1cc(Oc2cccc(NC(=O)Nc3cc(C(C)(C)C)nn3-c3ccc4[nH]c(=O)ccc4c3)c2)ccn1` [Example 157, 1-(3-t-butyl-1-(2-oxo-1,2-dihydroquinolin-6-yl)-1H-pyrazol-5-yl)-3-(3-(2-(methylcarbamoyl)pyridin-4-yloxy)phenyl)urea] was tested. Which IC50 [2] did it give?
A: Its IC50 is 40 nM.

Q: And the IC50 [3, 10]?
A: The IC50 was 31 nM.

Q: For `CC(C)(C)c1cc(NC(=O)Nc2cccc(Cl)c2Cl)n(-c2ccc3cn[nH]c3c2)n1` [Example 120, 1-(3-t-butyl-1-(1H-indazol-6-yl)-1H-pyrazol-5-yl)-3-(2,3-dichlorophenyl)urea], which IC50 [2] is on record?
A: The IC50 was 214 nM.

Q: And the IC50 [3, 10]?
A: The IC50 was 5100 nM.

Q: How did the IC50 [2] turn out when `CC(C)(C)c1cc(NC(=O)Nc2ccc(-c3cccc4c3CNC4=O)cc2)n(-c2cccc(-c3cn[nH]c3)c2)n1` [Example 51, 1-(1-(3-(1H-pyrazol-4-yl)phenyl)-3-t-butyl-1H-pyrazol-5-yl)-3-(4-(1-oxoisoindolin-4-yl)phenyl)urea] was run?
A: Its IC50 is 29 nM.

Q: And the IC50 [3, 10]?
A: The IC50 was 52 nM.

Q: How did the IC50 ([4]; read-out: KDR Data (IC50)) turn out when `CC(C)(C)c1cc(NC(=O)Nc2cccc(Br)c2)n(-c2cccc(C#N)c2)n1` [Example 5, 1-(3-t-butyl-1-(3-cyanophenyl)-1H-pyrazol-5-yl)-3-(3-bromophenyl)urea] was run?
A: Its IC50 is 850 nM.

Q: And the IC50 [5]?
A: Its IC50 is 38 nM.

Q: What about the IC50 ([6]; read-out: Abl Data (IC50)) of the same compound?
A: The IC50 was 2000 nM.

Q: What about the IC50 [7] of the same compound?
A: Its IC50 is 87 nM.

Q: How did the IC50 [1, 9] turn out when `Cn1c(=O)c(-c2cccc(NC(=O)Nc3cc(C(C)(C)C)nn3-c3ccc4c(c3)CCN4S(C)(=O)=O)c2)cc2cncnc21` [Example 197, 1-(3-t-butyl-1-(1-(methylsulfonyl)indolin-5-yl)-1H-pyrazol-5-yl)-3-(3-(8-methyl-7-oxo-7,8-dihydropyrido[2,3-d]pyrimidin-6-yl)phenyl)urea] was run?
A: The IC50 was 28 nM.

Q: And the IC50 [2]?
A: Its IC50 is 27 nM.

Q: What about the IC50 [3, 10] of the same compound?
A: The IC50 was 12 nM.

Q: `CC(C)(C)c1cc(NC(=O)Nc2cccc(Cl)c2Cl)n(-c2ccc3nc[nH]c(=O)c3c2)n1` [Example 195, 1-(3-t-butyl-1-(4-oxo-3,4-dihydroquinazolin-6-yl)-1H-pyrazol-5-yl)-3-(2,3-dichlorophenyl)urea] was tested. Which IC50 [1, 9] did it give?
A: Its IC50 is 46 nM.

Q: And the IC50 [2]?
A: Its IC50 is 298 nM.

Q: And the IC50 [3, 10]?
A: Its IC50 is 910 nM.

Q: What does the source list for `CNC(=O)c1cc(Oc2ccc(NC(=O)Nc3cc(C(C)(C)C)nn3-c3ccc4nc(N)ccc4c3)cc2)ccn1` [Example 176, 1-(1-(2-aminoquinolin-6-yl)-3-t-butyl-1H-pyrazol-5-yl)-3-(4-(2-(methylcarbamoyl)pyridin-4-yloxy)phenyl)urea]?
A: IC50 [2]: 44 nM; IC50 [3, 10]: 2.8 nM

Q: `Cn1c(=O)c(-c2cccc(NC(=O)Nc3cc(C4CCCC4)nn3-c3ccc4c(c3)CCC(=O)N4)c2)cc2cncnc21` [Example 134, 1-(3-cyclopentyl-1-(2-oxo-1,2,3,4-tetrahydroquinolin-6-yl)-1H-pyrazol-5-yl)-3-(3-(8-methyl-7-oxo-7,8-dihydropyrido[2,3-d]pyrimidin-6-yl)phenyl)urea] was tested. Which IC50 [2] did it give?
A: Its IC50 is 41 nM.

Q: And the IC50 [3, 10]?
A: Its IC50 is 52 nM.

Q: How did the inhibition at 10 µM ([4]; @ 10 μM, read-out: KDR Data (percent inhibition)) turn out when `CC(C)(C)c1cc(NC(=O)Nc2cccc(Cl)c2)n(-c2cccc(C#N)c2)n1` [Example 8, 1-(3-t-butyl-1-(3-cyanophenyl)-1H-pyrazol-5-yl)-3-(3-chlorophenyl)urea] was run?
A: The inhibition at 10 µM was 96%.

Q: What about the IC50 [5] of the same compound?
A: Its IC50 is 25 nM.

Q: What about the inhibition at 10 µM ([6]; @ 10 μM, read-out: Abl Data (percent inhibition)) of the same compound?
A: Its inhibition at 10 µM is 81%.

Q: With `CC(C)(C)c1cc(NC(=O)Nc2cccc(Oc3cccnc3)c2)n(-c2ccc3c(c2)CC(C(=O)O)NC3)n1` (centres unmarked) [Example 189, 6-(3-t-butyl-5-(3-(3-(pyridin-3-yloxy)phenyl)ureido)-1H-pyrazol-1-yl)-1,2,3,4-tetrahydroisoquinoline-3-carboxylic acid] as the compound, how does the IC50 [8] read?
A: Its IC50 is 23 nM.

Q: What about the IC50 [2] of the same compound?
A: Its IC50 is 918 nM.

Q: And the IC50 [3, 10]?
A: Its IC50 is 3 nM.
